Series [1] concerns RHA1. The series can be described thus: Growth of RHA1 on p-EB. The format is cell-based, Rhodococcus jostii RHA1. The following applies: M9G with up to 5 mM p-EB; OD600 after 48 hours. As to the method: RHA1 was grown in M9 media supplemented with a mixture trace metals […]) ([37]) and growth substrate. Growth substrates were solubilized in dimethyl sulfoxide and added to the media. For the growth on p-EB experiment, RHA1 was grown in 1 ml […] supplemented with 5 mM benzoate for 1 day shaking at 30 °C. The cells were spun harvested and washed twice with […] and added to 3 ml […] containing p-EB or benzoate at a final OD600 of 0.05. OD600 of 150 μl culture in a 96-well plate was measured by a TECAN Spark microplate reader. […] When OD600 reached 0.6, cells were harvested, washed twice in […] and suspended in 50 ml of […] 1 mM p-EB. After 4 h of incubation, cell supernatant was collected for LC-MS analysis. Figure S6: Growth of RHA1 on p-EB. Growth of WT in […] supplemented with up to 5 mM of p-EB or 5 mM benzoate. OD600 was measured after 48 hours incubation.

The target of series [2] is T1, PbdA (Rhodococcus jostii, UniProt Q0SCI3).
T1 sequence (Q0SCI3 1-400): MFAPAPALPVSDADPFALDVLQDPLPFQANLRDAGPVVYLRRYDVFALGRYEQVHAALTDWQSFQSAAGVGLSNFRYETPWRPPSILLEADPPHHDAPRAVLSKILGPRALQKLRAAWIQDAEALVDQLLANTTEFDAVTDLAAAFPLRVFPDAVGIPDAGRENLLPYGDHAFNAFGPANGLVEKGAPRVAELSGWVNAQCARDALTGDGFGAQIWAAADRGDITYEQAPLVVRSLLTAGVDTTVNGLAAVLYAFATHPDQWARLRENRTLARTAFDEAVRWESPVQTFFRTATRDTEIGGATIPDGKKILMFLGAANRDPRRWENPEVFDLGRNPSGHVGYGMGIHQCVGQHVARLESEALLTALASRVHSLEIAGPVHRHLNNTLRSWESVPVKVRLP
The conditions noted are these: for NADH depletion rate: air-saturated MOPS (I = 0.1 M); for Rate of Aromatic turnover: appearance of O-demethylated product (disappearance of p-EB). As to the method:
We then measured coupling under optimum conditions for other substrates. […] Finally, we measured the apparent steady-state kinetic parameters of the PbdA reaction under conditions of maximal coupling (Fig. S4).
(§1) For activity measurements 0.25 to 1 μM of PbdA and PbdB were combined in a 200 μl cuvette in 20 mM Mops, pH 7.2 with substrate diluted in the same buffer. NADH was added to 350 μM to initiate the reaction. For HPLC analysis, enzymatic reactions were acidified by adding acetic acid to 10% final concentration, centrifuged (16,000×g for 10 min), and filtered through a 0.2 μm polytetrafluoroethylene membrane. Samples were run over a Luna 5 μm C18(2) 100 Å 150 × 3 mm column (Phenomenex) at 0.7 ml min^−1 by a Waters 2695 separation HPLC module. Samples were eluted with a 16.8 ml linear gradient from 1% methanol plus 0.1% formic acid in water to 100% methanol plus 0.1% formic acid and monitored at 280 nm with a Waters 2996 photodiode array detector. Concentrations were determined by interpolation on a standard curve of 0 to 1 mM of authentic standard. NADH concentration was measured by absorbance at 340 nm, ε = 6.22 mM^-1 cm^-1. Coupling was calculated from the ratio of rate of aromatic turnover, as determined by HPLC, and the rate of NADH oxidation, determined spectroscopically. Buffer ionic strength was adjusted by addition of NaCl, as appropriate. Apparent steady-state kinetic parameters were calculated by fitting Michaelis–Menten equations to initial velocity of reactions at various concentrations of aromatic substrate (LEONORA).

Series [3] concerns the target T1, PbdA. The series can be described thus: Substrate binding to PbdA (WT) by type I spectral shift titration. Set-up: hexaHis (N, cleaved yes); made in house; host or cells: PbdA: E. coli BL-21 λ (DE3); PbdB: Rhodococcus jostii RHA1. The following applies: for %High-spin (percent of heme iron in high-spin state): on substrate binding. As to the method: The affinity of PbdA for various LDACs was measured by the type I spectral shift upon titration of aromatic compound (Fig. 2). This shift occurs as the compound displaces a water coordinated to the heme iron, initiating a spin state transition in the latter from a low spin, hexacoordinate, to a high spin, pentacoordinate form.
Figure 2 Substrate binding of PbdA. A, difference spectra of PbdA titrated with 1 to 50 μM p-MBA from the substrate-free enzyme. Darker colors indicate higher concentration of p-MBA. Spectra were collected after each addition of substrate to 1 μM enzyme in 20 mM Mops, I = 0.1 M, pH 7.2. B, binding isotherm of PbdA and p-MBA. The fitted curve represents a simple hyperbola. p-MBA, para-methoxybenzoate.
(§2) UV-visible spectroscopy was conducted with a Cary 60 spectrophotometer equipped with a thermostatted cuvette holder at 25 °C. Scans of purified proteins diluted in 20 mM Mops, I = 0.1 M, pH 7.2 were taken between 250 and 700 nm. Heme concentration was calculated as described previously ([35]). Carbon monoxide binding was determined by reduction of PbdA diluted in 20 mM Mops, I = 0.1 M, pH 7.2 as above by a few grains of […]. CO was bubbled into the reduced enzyme for approximately 60 s at a rate of one bubble per second. Dissociation constants (Kd) were determined by titration of ligands diluted into enzyme buffer from 1 M stocks prepared in dimethyl sulfoxide into PbdA diluted in 20 mM Mops, I = 0.1 M, pH 7.2. Spectra take upon addition of substrate were subtracted from the spectrum of the enzyme, and peak-to-trough distance was plotted by ligand concentration. Kd values were determined by fitting a hyperbolic equation to the data as described previously ([23], [36]). The proportion of high-spin heme iron was determined using the approximate peak-to-trough extinction coefficient (ε ≈ 100 mM^−1 cm^−1) ([36]).

For series [4], the system named is CYP199A4. Set-up: method as in PMID 26969786. The following applies: cited from earlier work.
The target in series [5] is T2, PbdA R84M (Rhodococcus jostii, UniProt Q0SCI3, R82M).
T2 construct: hexaHis (N, cleaved yes); made in house; host or cells: PbdA variant: E. coli BL-21 λ (DE3); PbdB: Rhodococcus jostii RHA1
Briefly: Substrate binding to PbdA R84M variant by spectral titration. Set-up: species or system Rhodococcus jostii RHA1. As for the experimental part:
as §2

For series [6], the target named is T3, PbdA S237A (Rhodococcus jostii, UniProt Q0SCI3, S235A).
T3 construct: hexaHis (N, cleaved yes); made in house; host or cells: PbdA variant: E. coli BL-21 λ (DE3); PbdB: Rhodococcus jostii RHA1
Briefly: Substrate binding to PbdA S237A variant by spectral titration. Details: species or system Rhodococcus jostii RHA1. As to the method: as §2

In series [7] the target is T2, PbdA R84M. The series can be described thus: Activity and coupling assay of PbdA R84M variant with PbdB. The format is biochemical, Rhodococcus jostii RHA1. The following applies: air-saturated MOPS (I = 0.1 M), pH 7.2, 25 °C. As for the experimental part: as §1
(§3) ^aExperiments were performed using air-saturated MOPS (I = 0.1 M), pH 7.2, at 25 °C. The rate of aromatic substrate turnover was based on the appearance of O-demethylated product. Standard deviation is shown in parentheses.

Series [8] addresses T4, PbdA S87A/S237A (Rhodococcus jostii, UniProt Q0SCI3, S235A/S85A).
T4 construct: hexaHis (N, cleaved yes); made in house; host or cells: PbdA variant: E. coli BL-21 λ (DE3); PbdB: Rhodococcus jostii RHA1
Briefly: Activity and coupling assay of PbdA S87A/S237A variant with PbdB. In kind it is biochemical, Rhodococcus jostii RHA1. As to the method:
as §1, §3

Series [9] deals with T3, PbdA S237A. Briefly: Activity and coupling assay of PbdA S237A variant with PbdB. In kind it is biochemical, Rhodococcus jostii RHA1. As to the method:
as §1, §3

Series [10] concerns the target T4, PbdA S87A/S237A. The series can be described thus: Substrate binding to PbdA S87A/S237A variant by spectral titration. Details: species or system Rhodococcus jostii RHA1. As to the method:
as §2

The target in series [11] is T5, PbdA S87A (Rhodococcus jostii, UniProt Q0SCI3, S85A).
T5 construct: hexaHis (N, cleaved yes); made in house; host or cells: PbdA variant: E. coli BL-21 λ (DE3); PbdB: Rhodococcus jostii RHA1
Briefly: Substrate binding to PbdA S87A variant by spectral titration. Set-up: species or system Rhodococcus jostii RHA1. As to the method: as §2

Series [12] concerns the target T5, PbdA S87A. Briefly: Activity and coupling assay of PbdA S87A variant with PbdB. In kind it is biochemical, Rhodococcus jostii RHA1. As to the method:
as §1, §3

Substrate in series [13]: COc1ccc(C(=O)O)cc1O
Briefly: purified protein, by the assay type. The following applies: other: WT PbdA with PbdB, air-saturated Mops (I = 0.1 M), pH 7.2, 25 °C, SD in parentheses.

[14] abbreviates: WT PbdAB, pH 7.2, 25 °C, SD in parentheses.
Where [15] appears, read: air-saturated MOPS (I = 0.1 M), pH 7.2, 25 °C.
Setting [16] is: appearance of O-demethylated product.

As usually defined, the Kd is the concentration at which binding is half-saturated. By kcat is commonly meant the maximal rate divided by the concentration of active sites. As a reminder, the kcat/Km is the second-order rate constant that governs catalysis at low substrate concentration.

Like-named read-outs stand apart in the source and are kept apart here.

T5 sequence (Q0SCI3 entry or part of it S85A): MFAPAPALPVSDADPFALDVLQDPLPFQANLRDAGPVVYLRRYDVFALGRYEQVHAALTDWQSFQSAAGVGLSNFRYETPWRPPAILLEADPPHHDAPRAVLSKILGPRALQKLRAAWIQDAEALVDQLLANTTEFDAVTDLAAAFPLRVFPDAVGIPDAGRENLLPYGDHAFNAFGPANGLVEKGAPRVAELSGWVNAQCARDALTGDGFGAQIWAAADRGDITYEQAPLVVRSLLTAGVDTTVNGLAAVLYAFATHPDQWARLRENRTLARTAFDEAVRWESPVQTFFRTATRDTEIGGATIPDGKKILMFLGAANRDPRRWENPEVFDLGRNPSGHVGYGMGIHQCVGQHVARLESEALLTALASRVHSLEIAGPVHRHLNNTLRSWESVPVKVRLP
T4 sequence (Q0SCI3 entry or part of it S85A/S235A): as the sequence (Q0SCI3 entry or part of it S85A) above, with S235A counted along it
T3 sequence (Q0SCI3 entry or part of it S235A): as the sequence (Q0SCI3 entry or part of it S85A) above, with A85S, S235A counted along it
T2 sequence (Q0SCI3 entry or part of it R82M): as the sequence (Q0SCI3 entry or part of it S85A) above, with R82M, A85S counted along it

Regarding `CCc1ccc(C(=O)O)cc1` [p-EB, p-ethylbenzoate], the “Growth of RHA1 on the compound as substrate” value in series [1] is “did not grow”. In addition, in series [2] (WT PbdA with PbdB, air-saturated Mops (I = 0.1 M), pH 7.2, 25 °C, SD in parentheses), the “kcat (apparent)” value is recorded as 0.14 (0.01) s^−1. For the same molecule, the NADH depletion rate in series [2] (setting [14]) is listed as 830 (80) U mg P450^-1. In addition, in [2] (WT PbdAB, SD in parentheses), the “Rate of Aromatic turnover” value is given as 900 (100) U mg P450^-1. In addition, the Coupling in [2] (WT PbdAB, ratio of aromatic turnover rate to NADH oxidation rate) is 110 (7) %. Besides, the Km in [2] (read-out: KM (apparent), WT PbdA with PbdB, air-saturated Mops (I = 0.1 M), pH 7.2, 25 °C, SD in parentheses) came out at 12 µM. The Kd in [3] (WT PbdA, 20 mM Mops, I = 0.1 M, pH 7.2, 25 °C, SD in parentheses, read-out: Kd) stood at 6 µM. In [3] (WT PbdA), the “%High-spin (percent of heme iron in high-spin state)” value worked out at 72%.

In the case of `COc1ccc(C=O)cc1` [p-MBAL, p-methoxybenzaldehyde], the “O-demethylation rate relative to that of p-MBA” value in [4] is given as 0.1%. Moreover, the Kd in [5] was found to be 7 µM; in series [6], 12 µM; in [3], 11 µM; in series [10], 8 µM; in [11], 16 µM. Further, the NADH depletion rate in [7] is recorded as 170 (10) U mg P450^-1; in [2] (setting [14]), 140 (30) U mg P450^-1; in series [8] (setting [15]), 200 (4) U mg P450^-1; in series [9] (setting [15]), 300 (50) U mg P450^-1; in series [12] (setting [15]), 290 (20) U mg P450^-1. Moreover, the “Rate of Aromatic turnover” value in [2] (WT PbdAB, SD in parentheses) was “did not detectably O-demethylate”; in [8] (setting [16]) it was 180 (40) U mg P450^-1; in [9] (setting [16]), 30 (3) U mg P450^-1; in [12] (setting [16]) it was 80 (30) U mg P450^-1. Further, the “%High-spin (percent of heme iron in high-spin state)” value in [3] (WT PbdA) is listed as 7.9%. Besides, the values for the Coupling in series [8], in series [9] and in series [12] were 90 (20) %, 9 (3) % and 27 (7) %, respectively. Besides, the values for the Specific activity in series [8] (O-demethylation), in series [9] (O-demethylation) and in [12] (O-demethylation) were 180 (20) U μg P450^-1, 27 (2) U μg P450^-1 and 80 (30) U μg P450^-1, respectively.

B1: PbdA (Rhodococcus jostii RHA1) (protein)
chain: MFAPAPALPVSDADPFALDVLQDPLPFQANLRDAGPVVYLRRYDVFALGRYEQVHAALTDWQSFQSAAGVGLSNFRYETPWRPPSILLEADPPHHDAPRAVLSKILGPRALQKLRAAWIQDAEALVDQLLANTTEFDAVTDLAAAFPLRVFPDAVGIPDAGRENLLPYGDHAFNAFGPANGLVEKGAPRVAELSGWVNAQCARDALTGDGFGAQIWAAADRGDITYEQAPLVVRSLLTAGVDTTVNGLAAVLYAFATHPDQWARLRENRTLARTAFDEAVRWESPVQTFFRTATRDTEIGGATIPDGKKILMFLGAANRDPRRWENPEVFDLGRNPSGHVGYGMGIHQCVGQHVARLESEALLTALASRVHSLEIAGPVHRHLNNTLRSWESVPVKVRLP
In the case of B1, in series [13], the Km is on record as 30 (10) μM, the turnover number (kcat) turned out to be 0.15 s⁻¹ and the kcat/Km worked out at 5000 M⁻¹ s⁻¹.

The values are drawn from publication PMC11530827, “Characterization of a cytochrome P450 that catalyzes the O-demethylation of lignin-derived benzoates” (The Journal of Biological Chemistry, 2024).
